Test results: patent publication US20220017833A1, “Methods and Compositions for Scavenging Sulfides from Hydrocarbon Fluids and Aqueous Streams” (Nexgen Oilfield Chemicals, LLC, priority 2019, published 2022)

Experiments:
[1] = Short Reaction Time Capacity Test; conditions: for Min/Eq BT / Min/Eq FD / Min to BT / Min to FD: 20 g test; for Min to BT / Min to FD: 3.00 g BuOH, GIDA 6.68 g as GID, 3.32 g water
From the text: (§1) Referring now to FIG. 1, therein is schematically depicted a sulfide scavenger testing system 100 comprising a gas source 2, a flow regulator 4, gas treatment vessel 6, and a sulfide measurement device 8. In one testing embodiment, gas (not shown) is flowed from gas source 2 via gas feed piping 10 into flow regulator 4, which regulates gas flow to gas treatment vessel 6 via regulated gas feed piping 12. The regulated gas flows into gas treatment vessel 6 via a bottom inlet 14 thereof, where it comes into contact with a volume of liquid 16 comprising a sulfide scavenger system (not separately labeled). The gas, having been treated by the liquid, flows out of a top end 18 of gas treatment vessel 6 and flows into sulfide measurement device 8 via treated gas outlet piping 20.
In one embodiment, gas flow from the flow regulator 4 is controlled such that the gas is flowed into the gas treatment vessel 6 at a flow rate of 100 mL/min. up to 500 mL/min. In one embodiment, a gas sparging device, such as a fine pore frit (not shown), is utilized to better distribute the gas into the scavenger liquid. In one embodiment, the gas treatment vessel 6 contains about 20 g of a liquid H2S scavenger, such as one or more diaminols/diaminacetals in a chemical system as described above. In one aspect, to the extent possible, H2S and/or CO2 are scavenged from the gas by the scavenger and the treated (“sweet”) gas exits top end 18 of treatment vessel 6. In one embodiment, sulfide measurement device 8 monitors the concentration of H2S leaving treatment vessel 6. in the gas phase. In other embodiments (not shown), a CO2 measurement device may be similarly employed to monitor the concentration of CO2 leaving treatment vessel 6 in the gas phase.
(§2) In one embodiment, gas is flowed through sulfide scavenger testing system 100 until the outlet H2S concentration reaches a 4,000 ppm target, at which point the test is concluded. This relative time duration before the target is reached is used to compare H2S scavenger capacity given the kinetics of each sulfide scavenger system. The longer the duration, the better the capacity.
(§3) The fine bubbles produced rise slowly, providing plenty of time, plenty of surface area, and a short path through which the H2S must diffuse to the scavenger in the liquid 16. Detector 8 on the outlet line 20 is used to measure H2S concentration in the exiting gas. The times to first detection (FD), at a threshold of 15 ppm, and to complete breakthrough (BT), at the detector saturation of 4000 ppm (0.4%), are recorded. This test is designed to measure the effective scavenging capacity in applications with long contact times.
This test is the same as the Long Reaction Time Capacity Test, but without the gas sparging device, so as to produce larger bubbles, and at a higher feed rate of 200 mL/min, after the first 8 minutes at 100 mL/min. The larger bubbles rise quickly through the liquid 16, providing little time, little surface area, and a long path through which the H2S must diffuse to the scavenger in the liquid. This test is designed to measure the effective scavenging capacity in applications with short contact times. It is far more reaction rate dependent than the Long Reaction Time Capacity and so is a more critical and differentiating test.
With triazine, one H2S reacts twice with the same molecule of triazine, replacing one amine, so the rate is “first order”, meaning proportional to the concentration of triazine.

[2] = Long Reaction Time Capacity Test; conditions: for Min/Eq BT / Min/Eq FD / Min to BT / Min to FD: 20 g test
From the text: as §1
In one embodiment, the gas contained in gas source 2 consists substantially of about 15% H2S, and about 3% CO2, with the remainder being Methane. In one embodiment, gas flow from the flow regulator 4 is controlled such that the gas is flowed into the gas treatment vessel 6 at a flow rate of 100 mL/min. up to 500 mL/min. In one embodiment, a gas sparging device, such as a fine pore frit (not shown), is utilized to better distribute the gas into the scavenger liquid. In one embodiment, the gas treatment vessel 6 contains about 20 g of a liquid H2S scavenger, such as one or more diaminols/diaminacetals in a chemical system as described above. In one aspect, to the extent possible, H2S and/or CO2 are scavenged from the gas by the scavenger and the treated (“sweet”) gas exits top end 18 of treatment vessel 6. In one embodiment, sulfide measurement device 8 monitors the concentration of H2S leaving treatment vessel 6. in the gas phase. In other embodiments (not shown), a CO2 measurement device may be similarly employed to monitor the concentration of CO2 leaving treatment vessel 6 in the gas phase.
as §2
as §3, with “In this test, methane containing 15% H2S and 3% CO2 by weight is sparged via a fine pore frit (not shown) at 100 mL/min through a column of 20 g of scavenger solution (See FIG. 1). The fine” for “The fine”
Note that the true total capacity of a scavenger with infinite time to react is simply equal to the stoichiometry of the reaction—the moles of H2S consumable per mole of scavenging molecule, which can be calculated. This Long Reaction Time Capacity measurement falls short of that ultimate stoichiometric capacity and so is still reaction rate dependent, just less so than the Short Reaction Time Capacity Test.

[3] = operational testing in a natural gas production facility; conditions: natural gas production facility
Protocol: In operational testing in a natural gas production facility, both an anhydrous glyoxy isopropyl aminacetal (GIDAc) scavenging system and an aqueous glyoxy isopropyl diaminol (GIDA) scavenging system were tested in comparison with an industry standard triazine-based scavenger.

[4] = Eq/test GIDAc 0.114, GIDA 0.076 (8.00 g MeOH, 2.00 g BuOH)
[5] = Eq/test Triazine 0.068, GIDAc 0.157, GIDA 0.076 (7.50 g MeOH, 2.50 g BuOH)
[6] = GIDAc 8.00 g as GID, 9.00 g MeOH, 8.00 g MeOH, 2.00 g BuOH
[7] = Triazine 7.50 g + 12.50 g water, GIDAc 11.00 g as GID, 6.00 g MeOH, 7.50 g MeOH, 2.50 g BuOH
[8] = Short Reaction Time Capacity Test, Table 2 compositions
[9] = Eq/test Triazine 0.068, GIDAc 0.185, GIDA 0.076
[10] = GIDAc 9.00 g as GID + 11.00 g MeOH
[11] = Triazine 7.50 g + 12.50 g water, GIDAc 13.00 g as GID + 7.00 g MeOH, GIDA 6.68 g as GID, 3.32 g water, 8.00 g MeOH, 2.00 g BuOH

Compound: COC(NC(C)C)C(NC(C)C)OC (stereo not drawn) [GIDAc]
- Min/Eq BT [1, 4]: 438 Min/Eq
- Min/Eq FD [1, 4]: 368 Min/Eq
- Min/Eq BT [1, 5]: 376 Min/Eq
- Min/Eq FD [1, 5]: 319 Min/Eq
- Min to BT [1, 6]: 50 min
- Min to FD [1, 6]: 42 min
- Min to BT [1, 7]: 59 min
- Min to FD [1, 7]: 50 min
- molar capacity at short reaction times (comparison, accounting for molar concentration) ([1]; Graph 1 (FIG. 3)): lower molar capacity at short reaction times
- contribution to the BT capacity (coefficient of best fit equation) [1, 8]: 404 minutes per equivalent
- contribution to the FD capacity (coefficient of best fit equation) [1, 8]: 324 minutes per equivalent
- Min/Eq BT [2, 9]: 707 Min/Eq
- Min/Eq FD [2, 9]: 566 Min/Eq
- Min/Eq BT ([2]; GIDAc 0.128 Eq/test): 771 Min/Eq
- Min/Eq FD ([2]; GIDAc 0.128 Eq/test): 592 Min/Eq
- Min to BT [2, 10]: 99 min
- Min to FD [2, 10]: 76 min
- Min to BT [2, 11]: 131 min
- Min to FD [2, 11]: 105 min
- molar capacity at long reaction times (comparison, accounting for molar concentration) ([2]; Graph 1 (FIG. 3)): the same capacity as GIDA at long reaction times
- employable in scavenging H2S from natural gas [3]: employable
